Five molecules from paper PMC8943153, “Inhibition of lung microbiota-derived proapoptotic peptides ameliorates acute exacerbation of pulmonary fibrosis” (Nature Communications, 2022) can be followed below.

Where two headings read alike, the source gives them in different places. No end group written: not given here.

Data set [1] deals with putative serine protease in Staphylococcus nepalensis culture supernatant. The class given is biochemical.
A short description of data set [2]: Half-life of corisin in vitro in a cell culture system. The format is in vitro ADME, human. Conditions: enzyme immunoassay; for Corisin concentration in cell culture medium: A549 culture, 10 µg/ml added. Also noted: Corisin concentration in cell culture medium: unit not given here. On the procedure:
We assessed the half-life of corisin in a cell culture system to determine the elimination rate of corisin from a solution in a cell culture system. A549 alveolar epithelial cells were cultured up to confluence in DMEM supplemented with 10% heat-inactivated FBS. The cells were then washed and cultured in FBS (−) DMEM. Corisin was then inoculated into the cell culture medium at a final concentration of 10 µg/ml, and the cell supernatant was sampled after 0, 1, 3, 6, 12, and 24 h. The concentration of corisin was measured by enzyme immunoassay, and the half-life of corisin was determined.

Where [3] appears, read: 0.1, 0.3, 1 mM, 0.5, 1 and 2 h at 37 °C, silver staining.

For `CC(C)C[C@H](NC(=O)[C@H]1O[C@@H]1C(=O)O)C(=O)NCCCCN=C(N)N` [E-64], the Inhibition in data set [1] (0h, 3uM) is recorded as 0; in data set [1] (0h, 10uM), 0; in data set [1] (0h, 30uM), 0; in data set [1] (0.5h, 3uM), 0; in data set [1] (0.5h, 10uM), 0; in data set [1] (0.5h, 30uM), 0. Moreover, the Inhibition in data set [1] (1h, 3uM) turned out to be 0; in data set [1] (1h, 10uM) it was 0; in data set [1] (1h, 30uM) it was 0.2; in data set [1] (2h, 3uM), 0; in data set [1] (2h, 10uM) it was 0; in data set [1] (2h, 30uM), 0.03. Besides, the “Effect on transglycosylase degradation by S. nepalensis culture supernatant” value (shortened to “Effect on transglycosylase degradation”) in data set [1] (setting [3]) is given as “neither E-64 nor EDTA suppressed”.

Turning to `Cl.NCCc1ccc(S(=O)(=O)F)cc1` [pefabloc], the Inhibition in data set [1] (0h, 0.1mM) stood at 0; in data set [1] (0h, 0.3mM), 0; in data set [1] (0h, 1mM), 0; in data set [1] (0.5h, 0.1mM) it was 53.32; in data set [1] (0.5h, 0.3mM), 87.64; in data set [1] (0.5h, 1mM) it was 98.7. The Inhibition in data set [1] (1h, 0.1mM) was 56.04; in data set [1] (1h, 0.3mM) it was 90.52; in data set [1] (1h, 1mM), 98.55; in data set [1] (2h, 0.1mM) it was 52.92; in data set [1] (2h, 0.3mM) it was 90.94; in data set [1] (2h, 1mM), 99.04.

As for `O=C(O)CN(CCN(CC(=O)O)CC(=O)O)CC(=O)O` [EDTA, ethylenediaminetetraacetic acid], the “Effect on transglycosylase degradation” value in data set [1] is listed as “neither E-64 nor EDTA suppressed”.

For `Cl.NCCc1ccc(S(=O)(=O)F)cc1` [pefabloc SC], in data set [1] (setting [3]), the “Effect on transglycosylase degradation” value is “suppress transglycosylase degradation”.

As for IVMPESSGNPNAVNPAGYR [corisin], the “Half-life in solution in a human alveolar cell culture system” value in data set [2] (10 µg/ml in FBS(-) DMEM on A549 cells) is recorded as less than 1 h. The “Corisin concentration in cell culture medium” value in data set [2] (time 1 h) is 3931.8; in data set [2] (time 3 h), 2007.7; in data set [2] (time 6 h), 1433.4; in data set [2] (time 12 h), 1485.2; in data set [2] (time 24 h), 1357.9. Besides, the half-life at 10 µg/ml in data set [2] (human, 10 µg/ml in FBS(-) DMEM on confluent A549 cells, sampled 0-24 h, exponential decay model, n = 4 per time point, read-out: Half-life in A549 epithelial cell culture medium (converted)) is 42 min.
